Test results reported in PubChem BioAssay (NCI).
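At the GI50, growth is halved. At the TGI there is no net growth.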

Assays:
Experiment in all cases: NCI-60 cell line screen, 384-well format
786-0 renal = tested on: 786-0 renal
A498 renal = tested on: A498 renal
A549 NSCLC = tested on: A549 NSCLC
CAKI-1 renal = tested on: CAKI-1 renal
CCRF-CEM leukemia = tested on: CCRF-CEM leukemia
COLO 205 colon = tested on: COLO 205 colon
DU-145 prostate = tested on: DU-145 prostate
EKVX NSCLC = tested on: EKVX NSCLC
HCC-2998 colon = tested on: HCC-2998 colon
HCT-116 colon = tested on: HCT-116 colon
HL-60(TB) leukemia = tested on: HL-60(TB) leukemia
HOP-92 NSCLC = tested on: HOP-92 NSCLC
HS 578T breast = tested on: HS 578T breast
HT29 colon = tested on: HT29 colon
IGROV1 ovarian = tested on: IGROV1 ovarian
K-562 leukemia = tested on: K-562 leukemia
KM12 colon = tested on: KM12 colon
LOX IMVI melanoma = tested on: LOX IMVI melanoma
M14 melanoma = tested on: M14 melanoma
MALME-3M melanoma = tested on: MALME-3M melanoma
MCF7 breast = tested on: MCF7 breast
MDA-MB-231 breast = tested on: MDA-MB-231 breast
MDA-MB-435 melanoma = tested on: MDA-MB-435 melanoma
MDA-MB-468 breast = tested on: MDA-MB-468 breast
MOLT-4 leukemia = tested on: MOLT-4 leukemia
NCI-H522 lung = tested on: NCI-H522 lung
NCI/ADR-RES ovarian = tested on: NCI/ADR-RES ovarian
OVCAR-3 ovarian = tested on: OVCAR-3 ovarian
OVCAR-4 ovarian = tested on: OVCAR-4 ovarian
OVCAR-5 ovarian = tested on: OVCAR-5 ovarian
OVCAR-8 ovarian = tested on: OVCAR-8 ovarian
RPMI-8226 leukemia = tested on: RPMI-8226 leukemia
RXF 393 renal = tested on: RXF 393 renal
SF-295 CNS = tested on: SF-295 CNS
SF-539 CNS = tested on: SF-539 CNS
SK-MEL-2 melanoma = tested on: SK-MEL-2 melanoma
SK-OV-3 ovarian = tested on: SK-OV-3 ovarian
SN12C renal = tested on: SN12C renal
SNB-19 CNS = tested on: SNB-19 CNS
SNB-75 CNS = tested on: SNB-75 CNS
SR leukemia = tested on: SR leukemia
SW-620 colon = tested on: SW-620 colon
T-47D breast = tested on: T-47D breast
TK-10 renal = tested on: TK-10 renal
U251 glioblastoma = tested on: U251 glioblastoma
UACC-257 melanoma = tested on: UACC-257 melanoma
UO-31 renal = tested on: UO-31 renal

## COCc1c(-c2cc3cc(C)cc(OC)c3s2)c2c(N)ncnn2c1CN1CCNC(=O)C1
786-0 renal
  GI50: 14.2 µM
  TGI: > 93.2 µM
A498 renal
  GI50: 3.32 µM
  TGI: 40.5 µM
A549 NSCLC
  GI50: 5.49 µM
  TGI: > 100 µM
CAKI-1 renal
  GI50: 3.41 µM
  TGI: 15.1 µM
CCRF-CEM leukemia
  GI50: 5.68 µM
  TGI: > 52.5 µM
COLO 205 colon
  GI50: 12 µM
  TGI: > 100 µM
DU-145 prostate
  GI50: 6.79 µM
  TGI: > 100 µM
EKVX NSCLC
  GI50: 5.72 µM
  TGI: > 69.8 µM
HCC-2998 colon
  GI50: 19.1 µM
  TGI: > 93.1 µM
HCT-116 colon
  GI50: 7.4 µM
  TGI: > 100 µM
HL-60(TB) leukemia
  GI50: 7.53 µM
  TGI: 21.8 µM
HOP-92 NSCLC
  GI50: 2 µM
  TGI: 18.9 µM
HS 578T breast
  GI50: 3.76 µM
  TGI: 22.4 µM
HT29 colon
  GI50: 12 µM
  TGI: > 100 µM
IGROV1 ovarian
  GI50: 4.19 µM
  TGI: 36.8 µM
K-562 leukemia
  GI50: 20.1 µM
  TGI: > 100 µM
KM12 colon
  GI50: 9.87 µM
  TGI: > 100 µM
LOX IMVI melanoma
  GI50: 5.57 µM
  TGI: 25.6 µM
M14 melanoma
  GI50: 4.75 µM
  TGI: 41 µM
MALME-3M melanoma
  GI50: 4.55 µM
  TGI: 32.6 µM
MCF7 breast
  GI50: 5.56 µM
  TGI: > 100 µM
MDA-MB-231 breast
  GI50: 5.63 µM
  TGI: > 72.1 µM
MDA-MB-435 melanoma
  GI50: 11.8 µM
  TGI: 72.2 µM
MDA-MB-468 breast
  GI50: 2.01 µM
  TGI: 7.39 µM
MOLT-4 leukemia
  GI50: 2.68 µM
  TGI: 8.5 µM
NCI-H522 lung
  GI50: 3.66 µM
  TGI: 30.6 µM
NCI/ADR-RES ovarian
  GI50: > 100 µM
  TGI: > 100 µM
OVCAR-3 ovarian
  GI50: 5.38 µM
  TGI: > 75.2 µM
OVCAR-4 ovarian
  GI50: 13.9 µM
  TGI: > 100 µM
OVCAR-5 ovarian
  GI50: 10.3 µM
  TGI: > 79.5 µM
OVCAR-8 ovarian
  GI50: 17.8 µM
  TGI: > 100 µM
RPMI-8226 leukemia
  GI50: 1.87 µM
  TGI: 7.59 µM
RXF 393 renal
  GI50: 1.19 µM
  TGI: 8.32 µM
SF-295 CNS
  GI50: 18.2 µM
  TGI: > 100 µM
SF-539 CNS
  GI50: 6.08 µM
  TGI: > 58.3 µM
SK-MEL-2 melanoma
  GI50: 4.38 µM
  TGI: 13.6 µM
SK-OV-3 ovarian
  GI50: 2.4 µM
  TGI: 8.99 µM
SN12C renal
  GI50: 7.95 µM
  TGI: > 73.6 µM
SNB-19 CNS
  GI50: 18.5 µM
  TGI: > 100 µM
SNB-75 CNS
  GI50: 1.63 µM
  TGI: 20.5 µM
SR leukemia
  GI50: 3.97 µM
  TGI: 12.9 µM
SW-620 colon
  GI50: 3.27 µM
  TGI: > 23.1 µM
T-47D breast
  GI50: 15.1 µM
  TGI: > 94.7 µM
TK-10 renal
  GI50: 7.97 µM
  TGI: 70.3 µM
U251 glioblastoma
  GI50: 12.1 µM
  TGI: > 100 µM
UACC-257 melanoma
  GI50: 29.9 µM
  TGI: > 100 µM
UO-31 renal
  GI50: 9.39 µM
  TGI: > 100 µM
